{"source": "patent US8435519B2", "about": "“Antibodies that bind alpha subunit of sodium potassium ATPase” (priority 2005, dated 2013)", "key": {"[1]": {"target": "T1, purified ouabain-sensitive dog NKA (Canis lupus familiaris, UniProt P50997)", "T1 construct": "30 μg of purified dog kidney NKA; from tissue; host or cells: dog kidney", "assay": "NKA catalytic activity (ATPase assay, Kyte's method), purified dog NKA", "assay_type": "biochemical", "conditions": "FIG. 7, antibody + peptide blocker", "description": "A first series of experiments were conducted testing whether antibody SSA412, binding to the D-R region of the alpha 1-subunit, affects NKA activity. NKA activity was determined based on Jack Kyte's method as previously described [17, which is hereby incorporated by reference as if set forth fully herein]. […] FIG. 2A and FIG. 2B show the time course of activation of purified rat (FIG. 2A: 0.125 mg/ml, ouabain-resistant) or dog (FIG. 2B: 0.125 mg/ml, ouabain-sensitive) NKA incubated with SSA412 (0.5 and 1.0 μM) or with 1.0 μM normal rabbit total IgG at 4° C. or at room temperature (FIG. 2C and FIG. 2D). The control is indicated by closed circles, […] SSA412 by open circles, […] SSA412 by closed triangles and […] rabbit IgG by open triangles.\nNKA activity was determined based on Jack Kyte's method as previously described under various experimental conditions as indicated in FIG. 2. All NKA activities in different experiments are ouabain-sensitive activity. Purified ouabain-resistant rat NKA and ouabain-sensitive dog NKA were used to verify the data. Enzymes were incubated with or without SSA412 for 60 min at room temperature. The reaction was initiated by adding different concentrations of MgATP in a final volume of 0.25 ml at 37° C. for 30 min and terminated by adding 0.75 ml quench solution and 0.025 ml developer. Color was developed for 30 minutes at room temperature and the concentration of phosphate was then determined at 700 nm using a spectrophotometer. NKA turnover number (kcat) was calculated using the equation kcat=Vmax/Et, where Vmax is the maximal velocity (rate of reaction) and Et represents enzyme concentration."}, "[2]": {"tested_on": "isolated rat cardiac myocytes", "assay": "Intracellular Ca2+ transients and cell contraction", "assay_type": "cell-based", "conditions": "SSA412 + 0.5 mM peptide blocker", "description": "Ventricular cardiac myocytes were isolated from adult Sprague-Dawley rats (2-3 months old, weight 225-300 g) using standard enzymatic technique as described previously.^1 Briefly, following anaesthesia (sodium pentobarbital, 100 mg/kg), the heart was quickly removed from the chest and aortic perfused at constant pressure at 37° C. for 3 min with a Ca^2+-free bicarbonate-based buffer containing 120 mM NaCL, 5.4 mM MgSO4, 1.2 mM NaH2PO4, 5.6 mM glucose, 20 mM NaHCO3, and 5 mM taurine, in the presence of O2 (95%)/CO2 (5%). Enzymatic digestion was initiated by adding collagenase (Worthington Type II, 1 mg/ml) to the perfusion solution. Calcium (50 μM) was added to the enzyme solution when the heart became swollen. About 7 min later, the left ventricle was quickly removed, cut into several pieces, and further digested on a shaker (60-70 rpm) for 10 min in the same enzyme solution. […]\nMyocytes were placed on an inverted microscope (Zeiss model IM-35), superfused with HEPES-buffered solution at a flow rate of 1.8 ml/min, and electrically stimulated at 0.5 Hz at 23° C. Cell length was monitored from the bright-field image (650 nm to 750 nm red light illumination) by an optical edge-tracking method using a photodiode array (model 1024 SAQ, Reticon) with a 3-ms time resolution. Contraction amplitude was measured as the percentage of shortening of cell length. […]"}, "[3]": {"tested_on": "α- and β-adrenergic receptors in isolated rat myocytes", "assay": "Effect of α- and β-adrenergic receptor inhibitors on cell contraction", "assay_type": "cell-based", "conditions": "1 μM isoproterenol, inhibitors 7 μM each", "description": "Cell contractions were measured in the presence or absence of SSA412 (0.5 μM) with or without inhibitors. Black circles: with 1 μM isoproterenol. Open circles: with 1 μM isoproterenol+ both prazosin and propennol (7 μM each). Black triangles: with SSA412 in the presence of both prazosin and propennol (7 μM each). Data are presented as percent of control (n=8 cells for each group).\nMyocytes were placed on an inverted microscope (Zeiss model IM-35), superfused with HEPES-buffered solution at a flow rate of 1.8 ml/min, and electrically stimulated at 0.5 Hz at 23° C. Cell length was monitored from the bright-field image (650 nm to 750 nm red light illumination) by an optical edge-tracking method using a photodiode array (model 1024 SAQ, Reticon) with a 3-ms time resolution. Contraction amplitude was measured as the percentage of shortening of cell length."}, "D-R region of NKA": {"target": "T2, D-R region of NKA (Rattus norvegicus, UniProt P06685)", "T2 construct": "endogenous in cells; host or cells: isolated rat cardiac myocytes, frozen sections", "assay": "Immunofluorescent staining of rat cardiac myocytes", "assay_type": "binding", "conditions": "ouabain 5, 10 and 20 mM", "description": "With both ouabain and SSA412: FIG. 5E: a group of cells with 5 mM ouabain at a magnification of 400×, FIG. 5F: a single cell with 5 mM ouabain at 1200×, FIG. 5G: cells with 10 mM ouabain, FIG. 5H: cells with 20 mM ouabain.\nIsolated rat heart cells were incubated in 1 ml cold lysis buffer containing 150 mM NaCl, 10 mM EDTA, 1% NP-40, 1 mM Na3VO4, and 1× protease inhibitor cocktail as described, with or without antibody. Immunoprecipitates were boiled for 5 min and loaded on a 7% SDS gel, and transferred from the SDS gel to a nitrocellulose membrane. The nitrocellulose membrane was blocked with 5% nonfat milk for 1 hour and incubated with SSA412 or other control antibodies overnight at 4° C. Alkaline phosphatase conjugated secondary antibody (1:2500) was then incubated with the membrane for 1 hour and washed 3 times with TBS in 0.05% Tween-20. Color was developed using a reagent containing a mixture of NBT and BCIP (Promega Corporation, WI). For immunofluorescent staining, rat myocytes were frozen and cut on a cryostat. Sections (8 μm) of each tissue were blocked with 1% bovine serum albumin (BSA) and incubated with SSA412 (1:100) for 60 min in the presence or absence of 5, 10, and 20 mM ouabain. Washed slides were evaluated after incubation with a FITC conjugated goat anti-rabbit antibody (1:75)."}}}
{"compound": "RSATEEEPPNDD (Activation site of the (Na+K)-ATPase) [PB78]", "values": [{"measurement": "antibody-induced increase in NKA in presence of respective peptide blocker", "setting": "[1]", "result": "blocked"}]}
{"compound": "DVEDSYGQQWTYEQR (Activation site of the (Na+K)-ATPase)", "values": [{"measurement": "SSA412-induced increase in calcium and contraction in presence of peptide blocker", "setting": "[2]", "result": "blocked"}]}
{"compound": "CC(C)NCC(O)COc1cccc2ccccc12", "note": "(stereo not shown) [propennol]", "values": [{"measurement": "effect of inhibitor on action of the agonist isoproterenol", "setting": "[3]", "result": "eliminated"}]}
{"compound": "C[C@@H]1O[C@@H](O[C@H]2C[C@@H](O)[C@]3(CO)[C@H]4[C@H](O)C[C@]5(C)[C@@H](C6=CC(=O)OC6)CC[C@]5(O)[C@@H]4CC[C@]3(O)C2)[C@H](O)[C@H](O)[C@H]1O", "note": "[Ouabain, ouabain]", "values": [{"measurement": "competition with SSA412 binding to the D-R region of NKA", "setting": "D-R region of NKA", "result": "does not compete"}]}
{"compound": "KRQPRNPKTDKLVNE (Activation site of the (Na+K)-ATPase) [PB95]", "values": [{"measurement": "antibody-induced increase in NKA in presence of respective peptide blocker", "setting": "[1]", "result": "blocked"}]}
{"compound": "VPAISLAYEQAESD (VPASLAYEQAESD; Activation site of the (Na+K)-ATPase) [PB97]", "values": [{"measurement": "antibody-induced increase in NKA in presence of respective peptide blocker", "setting": "[1]", "result": "blocked"}]}
{"compound": "COc1cc2nc(N3CCN(C(=O)c4ccco4)CC3)nc(N)c2cc1OC", "note": "[prazosin]", "values": [{"measurement": "effect of inhibitor on action of the agonist isoproterenol", "setting": "[3]", "result": "eliminated"}]}
